Where “and” joins values, the source holds several entries; their conditions need not be identical. Equal entries are not always repeated. Where two headings read alike, the source gives them in different places.
How the values were obtained:
isolated mouse vagus = experiment: Capsaicin-induced depolarization of the isolated vagus nerve; conditions: data also shown in U.S. Ser. No. 14/544,042
Text: An isolated vagus nerve model was developed at Imperial College, London, U.K. [Birrell et al. TrpA1 agonists evoke coughing in guinea pig and human volunteers. Amer. J. respiratory and critical care medicine 180, 1042-7, 2009; Patel, H. J. et al. Inhibition of guinea-pig and human sensory nerve activity and the cough reflex in guinea-pigs by cannabinoid (CB2) receptor activation. Brit. J. Pharmacol. 140, 261-8, 2003]. In this in vitro assay, segments of the mouse vagus nerve are placed on a platform and the electrical activity is recorded after topical application of capsaicin. Capsaicin is a known irritant that elicits pain when it is applied to the skin and it will depolarize the isolated vagus. […] The similar effect of DAPA-2-5 in this test system was published in U.S. Ser. No. 14/55,042. Briefly, segments of vagus nerve, caudal to the nodose ganglion, were removed from mice with fine forceps and segments placed in oxygenated Krebs solution and bubbled with 95% O2/5% CO2. The desheathed nerve trunk was mounted in a ‘grease-gap’ recording chamber and constantly superfused with Krebs solution with a flow rate of approximately 2 mL/min, and the electrical activity of the nerve monitored with electrodes. The temperature of the perfusate was kept constant at 37° C. by a water bath. Nerve depolarizations were induced by superfusion of the nerve with capsaicin (1 μM). After two reproducible depolarization responses to capsaicin, DIPA-1-7 was applied at 1 mg/mL for 10 minutes in the perfusate followed by capsaicin.

[1] = test system: heat-induced edema in the anesthetized rat paw; experiment: Heat-induced edema in the anesthetized rat paw; assay type: in vivo; conditions: 20 mg/mL, 0.3 mL per paw, 30 min before 58° C. water 1 min; relative to contralateral paw
Text: Inflammation is defined as the reaction of vascularized living tissue to local injury [Cotran, R S. 1989. Inflammation and repair. In Robbins: Pathologic Basis of Disease, ed. S. L. Robbins, R. S. Cotran, V. Kumar, 2:39-86. Philadelphia: Saunders. 4th ed.]. The characteristic signs of inflammation are redness, swelling, heat, and pain (and loss of function). The anti-inflammatory properties of the DAPA compounds were studied in a model of heat-induced vascular leakage [Wei et al. Method of inhibiting inflammatory response. U.S. Pat. No. 4,801,612; Wei et al., Anti-inflammatory peptide agonists. Annual Review Pharmacol Toxicol. 33:9-108, 1993]. When the paws of pentobarbital-anesthetized rats (200 to 300 g body weight) are immersed in 58° C. water for 1 min, the normal paw volume of about 1.8 mL was increased by ˜88% within 30 min, the swelling being due to an increase in water content of the paw.
Test compounds were dissolved in 20% water-80% R-1,2-propanediol at 20 mg/mL. The solutions were applied to the paw skin of pentobarbital-anesthetized rats (200 to 300 g body weight) at 0.3 mL per paw, using a syringe attached to a blunt 21 gauge needle covered at its tip with a piece of polyethylene 60 tubing. After distributing the solution over the paw, the paw was tightly enclosed in a plastic finger cut from a disposable glove. The contralateral paw [control] received only the vehicle. Thirty min after application, both paws were immersed in 58° C. water for 1 min. Thirty min after immersion, both paws were cut at ankle joint with scissors and weighed.
This degree of inhibition is significant for tissue protection as the injury stimulus is of supra-maximal intensity. The DAPA-2-5 effect was apparent to the untrained observer.

[2] = test system: human circular smooth muscle; experiment: Spontaneous contractions of human colon circular smooth muscle strips in organ bath; conditions: for IC50: read-out: median inhibitory concentration (IC50)
Procedure: In this present study, Dapa was examined by Amato in her test system. […] As shown in the FIG. 3, DAPA-2-5, prepared as a solution dissolved in distilled water, produced a dose-dependent reduction of the amplitude of human colon smooth muscle contractions when it was added to the organic bath.
The experimental procedures were approved by the Ethics Committee, University of Palermo, Italy. Human distal colon samples were obtained after informed consent from patients without LGIT disorders. The specimens were immediately placed in preoxygenated Krebs solution and stored overnight at 4° C. Circular muscular strips (4 mm wide by 10 mm long) were cut and suspended in a four-channel organ bath and connected to an isometric force transducer (FORT 25, Ugo Basile, Biological Research Apparatus, Comerio, Va., Italy). The organ bath contained 8 mL of oxygenated Krebs solution at 37° C. Mechanical activity was analyzed using the PowerLab/400 system (Ugo Basile). A tension of 1 g was applied, and strips allowed to equilibrate until spontaneous phasic contractions were recorded. Dapa compounds were added at step concentrations of 1 to 300 μM to the organ bath, with washing in between, and the contractions recorded after 4 min when the drug effect stabilizes. The TRPM8 antagonist, 5-BT (10^−5 M), was added at least 15 min before Dapa.

## CCCCCP(=O)(C(C)CC)C(C)CC (stereo not drawn) [DAPA-2-5, 1-Di(sec-butyl) phosphinoyl-pentane]
Isolated mouse vagus; TRPM8 knock-out mouse
  inhibition of capsaicin-induced depolarization: did not inhibit
Isolated mouse vagus; isolated normal mouse vagus
  percent inhibition of capsaicin-induced depolarization: 60%
[1]
  Inhibition of Heat Edema (±S.E.M.): 12.9% and 12.9 ± 2.5 %
[2]; amplitude of spontaneous contractions, human distal colon circular muscle
  IC50: 34 µM
[2]; pretreatment with 5-BT (10^−5 M)
  effect of TRPM8 antagonist on the inhibition of contractions: inhibited by pretreatment with 5-BT
[2]; spontaneous contractions, human circular smooth muscle in vitro
  IC50: 8 µg/mL
